Test results from PMC8138767, “Intrinsically disordered substrates dictate SPOP subnuclear localization and ubiquitination activity” (The Journal of Biological Chemistry, 2021).
Numbering of substitutions follows the chain as printed. Names may count otherwise. Where no end group is shown, it is not given here.

Columns and labels:
[1] = target: T1, SPOP–MATH (residues 28–166) (Homo sapiens, UniProt O43791); experiment: Competition fluorescence anisotropy, displacement of f-Puc from SPOP–MATH; format: binding; conditions: competition FA; 40 nM f-Puc, 6 μM SPOP–MATH; 50 mM sodium phosphate pH 6.5, 50 mM NaCl, 5 mM DTT, 1% BSA, 0.01% Triton X-100; complete competitive binding model; ± standard deviation of three independent replicates (Table S4)
T1 construct: glutathione S-transferase (GST) (N, cleaved yes); 6X His (N, cleaved yes); made in house; host or cells: E. coli BL-21(DE3)
Text: An Escherichia coli codon-optimized DNA sequence encoding amino acids 205 to 283 of the human Pdx1 sequence (Pdx1-C) in the multiple cloning site of pET49b(+) was purchased from GeneArt (Thermo Fisher). The pET49b(+) backbone encodes for N-terminal glutathione S-transferase and 6X His tags, followed by a 3C protease recognition motif. In all experiments described herein, a mutant containing an exogenous tryptophan at the N terminus of the human Pdx1-C sequence was used for the purposes of quantitation. Mutations in Pdx1-C were generated by Q5 site-directed mutagenesis (New England Biolabs) with primers designed on NEBbasechanger.com according to the manufacturer protocol. Similarly, an E. coli–optimized DNA sequence encoding residues 28 to 166 of human SPOP (SPOP–MATH) was purchased in pET49b(+) from GeneArt. […] A plasmid encoding His–SUMO–SPOP human residues 28 to 359 harboring a tobacco etch virus protease recognition site directly N terminal to the beginning of the native SPOP protein sequence was generated previously ([21]).
All FA experiments were conducted in 50 mM sodium phosphate, pH 6.5, 50 mM sodium chloride, 5 mM DTT, 1% BSA, and 0.01% Triton X-100. In all experiments, the source of fluorescence signal was f-Puc purchased from GenScript, at a final concentration of 40 nM. For direct FA measurements, SPOP–MATH or SPOP28–359 of concentrations between 0.001 and 300 μM was added to wells of 96- or 384-well plates containing f-Puc and buffer. For competition-mode experiments, serial dilutions of each competitor (Pdx1 peptide or recombinant protein) were prepared ranging from ∼0.01 μM to ∼2 mM (concentration range varied based on peptide solubility) in wells of 96- or 384-well plates containing 40 nM f-Puc and 6 μM SPOP–MATH or SPOP28–359. The fluorescence polarization of each well was measured (from which FA was calculated) using either a TECAN Infinite M1000 Pro or BioTek Synergy 4 fluorometer. All experiments were performed with at least three technical replicates. FA data points were fit to a complete competitive binding model ([23]) to determine dissociation constants using in-house Python scripts (see Quantification and statistical analysis).
All titrations were performed in triplicate for rigor. Direct FA titrations were performed to determine the dissociation constants of the fluorescent probe toward SPOP constructs. Direct titration data were fit according to equation 6 in ([54]). Competition mode titration data were fit according to the fitting function in ([23]). Average dissociation constants and standard error from the mean for all constructs from competition experiments may be found in Table S4. The python scripts used in plotting and fitting may be found at https://github.com/idpemery/spop-pdx1.

V5-SPOP in HeLa cells = experiment: Immunofluorescence: V5-SPOP localization on coexpression of GFP–Pdx1 variants; format: cell-based; conditions: coexpressed with V5-SPOP, 24 h after transfection, three biological replicates
Experimental: (§1) HeLa cells were cultured under sterile conditions with Dulbecco’s modified Eagle’s medium (DMEM) (Gibco) supplemented with 10% fetal bovine serum and antibiotics/antimycotics (Gibco) (see Table S5 for key reagents and resources). T-REx-293 cells (cat. no. R710-07) were obtained from Invitrogen. Cells were grown on DMEM supplemented with 10% fetal bovine serum (Gibco), GlutaMax (Gibco), and Penicillin-Streptomycin (Gibco) and kept under selection by 5 μg/ml blasticidin. All cells were grown at 37 °C under 5% CO2 and were mycoplasma free at the time the experiments were performed.
(§2) A plasmid encoding full-length human Pdx1 (amino acids 1-283) in pcDNA3.1 with a C-terminal GFP tag was purchased from GenScript. Full-length mouse SPOP (identical to the human sequence) with a V5 epitope tag in pcDNA3 was generated previously ([21]). The coding sequence for full-length mouse SPOP was inserted into pcDNA4/TO/myc (Invitrogen) for the T-REx system. pcDNA3-myc-CUL3 (cat no. 19893) and pcDNA–HA2–ROC1 (Rbx1) (cat no. 19897) were obtained from Addgene. pcDNA3 containing His-ubiquitin was a gift from Wenyi Wei.
For immunofluorescence experiments, 0.5 × 10^6 cells were seeded on borosilicate glass coverslips in 6-well plates. After 24 h, cells were transfected with 400 ng of each plasmid using the Qiagen Effectene transfection reagent according to the manufacturer protocol. 24 h after transfection, the cells were treated with 4% paraformaldehyde in PBS for 30 min at RT. Cells were permeabilized with 0.1% Triton X-100 in PBS (PBST) for 5 min at 21 °C, followed by blocking in 0.5% BSA in PBST for 1 h at 21 °C. Signal from GFP-tagged proteins was observed directly. Cells were stained in primary antibodies diluted in 0.5% BSA in PBST overnight at 4 °C with mouse anti-SC-35 (1:300, ab11826; Abcam) and chicken anti-V5 (1:300, NB600-379; Novus Biologicals). Cells were incubated with secondary antibodies for 2 h at 21 °C. The secondary antibodies used were goat anti-mouse Alexa Fluor 647 (1:250, A-21235; Thermo Fisher) and goat anti-chicken Alexa Fluor 555 (1:250, A-21437; Thermo Fisher). Cells on coverslips were treated with 300 nM 4′,6-diamidino-2-phenylindole (DAPI) for 5 min at 21 °C. Coverslips were mounted on glass slides with ProLong Diamond mounting reagent (Thermo Fisher) and cured before imaging on a Zeiss LSM 880 Upright microscope. All images were analyzed and prepared in Fiji ([53]).
All immunofluorescence data were averaged over three biological replicates. Cells not expressing both Pdx1 and SPOP were excluded from sampling. Raw images were collected in the Zeiss Zen software and then exported for viewing and analysis in Fiji. Nuclei of individual cells were designated manually in Fiji using the DAPI channel as a guide. The cells were binned based on whether SPOP was localized to nuclear speckles (puncta); cells with both diffuse and punctate SPOP signal were binned as “speckled.” The grayscale signal intensity of the green channel (Pdx1–GFP) was averaged over the DAPI-designated nuclear area. Next, the raw GFP intensity data points (one data point per cell analyzed) were plotted to generate a violin plot distribution. The average, minimum, and maximum values are shown by horizontal lines on the plot. Individual data points are also shown for rigor. […] All plotting and statistical tests were performed using in-house python scripts that can be found at https://github.com/idpemery/spop-pdx1.

[2] = test system: SPOP-mediated ubiquitination in T-REx-293 cells; experiment: SPOP-mediated ubiquitination of Pdx1 variants (Ni-NTA pulldown, immunoblot); format: cell-based; conditions: SPOP–myc and GFP–Pdx1 coexpressed 24 h, then 20 μM MG132 or DMSO for 4 h, immunoblot (Fig. 6C)
Experimental: We next sought to determine whether SPOP-driven ubiquitination of Pdx1 could occur outside of previously implicated droplets. Given the SPOP relocalization phenotype that we observe in cells that express SPOP and Pdx1, we hypothesized that the ubiquitination activity was occurring in the diffuse nucleoplasm and that optimal activity requires both SB sites. To test this hypothesis, we performed in cell ubiquitination assays with GFP–Pdx1 variants. SPOP–myc and GFP–Pdx1 were coexpressed for 24 h in T-REx-293 cells, followed by a 4-h treatment with 20 μM MG132 or dimethyl sulfoxide. Proteins modified with His-ubiquitin were enriched by pulldown on nickel-nitrilotriacetic acid (Ni-NTA) resin.
as §2
Ubiquitination and Western blots
(§3) T-REx-293 cells (Invitrogen) were seeded at a density of 0.8 × 10^6 per well in 6-well plates (tissue culture–treated plates (cat. no 3516, Corning)). After 24 h, cells were transfected with plasmids encoding Pdx1–GFP, SPOP–myc, His–ubiquitin, HA–Rbx1, and myc–CUL3 (as indicated) using the Qiagen Effectene transfection reagent. 24 h after transfection, the cells were treated with either dimethyl sulfoxide or 20 μM MG132 for 4 h before being harvested. Cells were lysed in buffer A (6 M guanidine HCl, 100 mM sodium phosphate, pH 8.0, and 10 mM imidazole). The lysates were sonicated, cleared, and incubated with Ni-NTA Agarose (Qiagen) for 3 h at RT, followed by 16 h at 4 °C. The beads were washed twice with buffer A and twice with a buffer composed of 1:3 buffer A:buffer T1 (buffer T1: 25 mM Tris HCl, pH 8.0, and 20 mM imidazole). The beads were finally transferred to buffer T1 and then boiled in the SDS-PAGE loading buffer containing 300 mM imidazole. Pdx1 stability assays were performed as described above, except that the cells were not treated with MG132. Cells expressing Pdx1–GFP or a variant were harvested 28 h after transfection, resuspended in 2x SDS-loading dye, and boiled for 5 min before SDS-PAGE analysis.
(§4) All proteins were resolved by SDS-PAGE. Separated proteins were analyzed by immunoblotting using either the ECL or the ECL Select Western blotting detection reagents (Amersham). The antibodies used were mouse anti-Pdx1 used at 1:500 for pulldown or 1:2000 for inputs (clone 26771, MAB2419, R&D Systems), mouse anti-myc (1:250, clone 9E10, Santa Cruz Biotechnology), and rabbit anti-GAPDH (1:8000, clone EPR1689, Abcam). horseradish peroxidase-conjugated secondary antibodies were sourced from Jackson ImmunoResearch Laboratories and used at 1:20,000 dilution (goat anti-rabbit IgG, 111-035-003 and goat anti-mouse, 115-035-003).

[3] = test system: SPOP-dependent turnover in T-REx-293 cells; experiment: SPOP-dependent Pdx1 stability (Western blot); format: cell-based; conditions: no MG132, harvested 28 h after transfection, Western blot (Fig. S3D)
Experimental: In a similar experiment, the cells were not treated with a proteasome inhibitor to observe the SPOP-dependent stability of each Pdx1 variant.
as §3, §4

[4] = target: T2, SPOP-MATH (human SPOP residues 28-166) (human, UniProt O43791 28-166); experiment: fluorescence polarisation; competition fluorescence anisotropy: competitor (~0.01 μM to ~2 mM) displaces 40 nM f-Puc from 6 μM SPOP-MATH or SPOP28-359; complete competitive binding fit; 50 mM sodium phosphate pH 6.5, 50 mM NaCl, 5 mM DTT, 1% BSA, 0.01% Triton X-100; conditions: both partners purified
T2 construct: N-terminal Gly-Pro-Gly cloning artefact left after 3C protease; speckle-type POZ protein (SPOP), human, MATH domain, residues 28-166; uniformly 15N-labelled for the NMR experiments; also called 15N-SPOP-MATH; source: E. coli BL-21(DE3), purified (Ni-NTA, 3C protease, second Ni-NTA, Sephacryl S100); not shown: GST, N-terminal, cleaved; His6, N-terminal, cleaved
T2 sequence (O43791 other isoform, or with tags, fused parts or gaps): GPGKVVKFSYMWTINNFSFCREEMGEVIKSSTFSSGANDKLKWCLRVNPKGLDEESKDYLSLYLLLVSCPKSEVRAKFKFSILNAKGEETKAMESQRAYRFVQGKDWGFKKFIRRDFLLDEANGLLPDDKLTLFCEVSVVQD

HeLa cells = experiment: Immunofluorescence: subcellular localization / phase separation of the protein itself; format: cell-based; conditions: SC-35 nuclear speckle marker
Experimental: as §1, §2
For immunofluorescence experiments, 0.5 × 10^6 cells were seeded on borosilicate glass coverslips in 6-well plates. After 24 h, cells were transfected with 400 ng of each plasmid using the Qiagen Effectene transfection reagent according to the manufacturer protocol. 24 h after transfection, the cells were treated with 4% paraformaldehyde in PBS for 30 min at RT. Cells were permeabilized with 0.1% Triton X-100 in PBS (PBST) for 5 min at 21 °C, followed by blocking in 0.5% BSA in PBST for 1 h at 21 °C. Signal from GFP-tagged proteins was observed directly. […] All images were analyzed and prepared in Fiji ([53]).
All immunofluorescence data were averaged over three biological replicates. […] Next, the raw GFP intensity data points (one data point per cell analyzed) were plotted to generate a violin plot distribution. […]

## Ac-GSSSEADEMAKALEAELNDLM [Mock (Fcp1), mock peptide, residues 941-961, negative control, reference compound]
[1]
  KD (binding to SPOP-MATH): no binding

## Ac-LSASPQPSSVAPRRPQEPR [Pdx1–SBM2]
[1]
  Kd: > 600 µM

## GFP–Pdx1–ΔSBM1: GFP–Pdx1 with deletion of the higher-affinity SBM1 (residues 224–236)
V5-SPOP in HeLa cells
  SPOP relocalization from nuclear speckles by Pdx1 variant: all cells, regardless of GFP–Pdx1–ΔSBM1 levels, contain punctate V5-SPOP
[2]
  ubiquitination of Pdx1 variant: impedes ubiquitination, as shown by no shift from the unmodified band
[2]; listed as Pdx1 lacking SBM1
  ubiquitination of Pdx1 variant: not observably ubiquitinated
[3]
  SPOP-dependent Pdx1 stability: more stable relative to the WT protein

B1: Pdx1-SBM2 peptide (human Pdx1 residues 265-283) (peptide)
peptide: Ac-LSASPQPSSVAPRRPQEPR
notes: pancreatic and duodenal homeobox 1 (Pdx1), human, residues 265-283; also called Pdx1 265-283; source: synthetic peptide (Tufts University Core Facility, HPLC purified)
[4]
  Kd: 630 µM

B2: V5-SPOP: full-length mouse SPOP (identical to the human sequence) with a V5 epitope tag (protein, UniProt Q6ZWS8 1-374, looked up)
chain: MSRVPSPPPPAEMSSGPVAESWCYTQIKVVKFSYMWTINNFSFCREEMGEVIKSSTFSSGANDKLKWCLRVNPKGLDEESKDYLSLYLLLVSCPKSEVRAKFKFSILNAKGEETKAMESQRAYRFVQGKDWGFKKFIRRDFLLDEANGLLPDDKLTLFCEVSVVQDSVNISGQNTMNMVKVPECRLADELGGLWENSRFTDCCLCVAGQEFQAHKAILAARSPVFSAMFEHEMEESKKNRVEINDVEPEVFKEMMCFIYTGKAPNLDKMADDLLAAADKYALERLKVMCEDALCSNLSVENAAEILILADLHSADQLKTQAVDFINYHASDVLETSGWKSMVVSHPHLVAEAYRSLASAQCPFLGPPRKRLKQS
modifications: full-length V5 tag
HeLa cells
  V5-SPOP localization when expressed alone: localizes to nuclear speckles

B3: W131G: substrate binding-impaired SPOP mutant (protein, UniProt O43791 1-374, looked up, variant W131G)
Speckle-type POZ protein: B2 chain with W131G
modifications: V5 tag
[2]
  ubiquitination of Pdx1 variant: lack of any shift of the Pdx1 band
